One data set has as its system Escherichia coli. Nature of the data set: Tested for antibacterial activity against Escherichia coli; IA - No useful antibacterial activity. The data set is classed as functional, organism-based.
In another data set the test system is Staphylococcus aureus. The experiment in a line: Tested for antibacterial activity against Staphylococcus aureus; IA - No useful antibacterial activity. The data set is classed as functional, organism-based.
Another data set concerns Streptococcus pneumoniae. Nature of the data set: Tested for antibacterial activity against Streptococcus pneumoniae; IA - No useful antibacterial activity. The data set is classed as functional, organism-based.
Data set [1] is described as follows: Half life in pH 7 buffer solution was determined. Type of data set: ADME.

Calls of active or inactive are those of the source.

For the molecule `C[C@H]1[C@H](NC(=O)COc2ccccc2)C(=O)N1c1c([O-])c(=O)c1=O.[K+]`, the outcome with Escherichia coli, in the data set with Staphylococcus aureus and in the data set with Streptococcus pneumoniae was inactive. The half-life (commonly the time needed for the level to fall by half in the phase considered) in data set [1] is 168 h.

As for `CO/N=C(/C(=O)N[C@H]1CN(c2c(O)c(=O)c2=O)C1=O)c1csc(N)n1`, the result in the data set with Escherichia coli, with Staphylococcus aureus and in the data set with Streptococcus pneumoniae was inactive.

As for `O=C(COc1ccccc1)N[C@H]1CN(c2c([O-])c(=O)c2=O)C1=O.[K+]`, the outcome in the data set with Escherichia coli, in the data set on Staphylococcus aureus and in the data set on Streptococcus pneumoniae was inactive. Further, in data set [1], the half-life was 72 h.
